This passage reports Km, k cat and Ki results from ChEMBL document CHEMBL1131944, “Phospholipase A2-like catalytic antibody” (Bioorg Med Chem Lett, 1999).

For one data set, the system named is 13C-1F6. Nature of the data set: Michaelis-Menten Kinetic rate constant in the hydrolysis by 13C-1F6 was determined. The data set is classed as ADME.
The nature of data set [1]: The catalytic rate constant in the hydrolysis by 13C-1F6 was determined by Michaelis-Menten Kinetics. It is filed as ADME.
Data set [2] can be described thus: Compound was tested for the inhibition of antibody-catalyzed hydrolysis.

For `CCCCCCCCCC(=O)OCC(COP(=O)([O-])OCC[N+](C)(C)C)OC(=O)CCCCCCC` (racemic) [ESTER OF PHOSPHOLIPID], in the data set with 13C-1F6, the Km (in general, the concentration of substrate that gives half-maximal velocity) worked out at 71 µM. In data set [1], this molecule gave a k cat of 0.00017 s⁻¹.
Turning to `CCCCCCCCCCP(=O)(O)OC(COCCCCCCCCCC(=O)OC)COP(=O)([O-])OCC[N+](C)(C)C` (stereo not drawn) [ESTER OF PHOSPHOLIPID], the affinity in data set [2], expressed as Ki, was 10 µM.
